Assay results reported in publication PMC11558128 (Advanced Science, 2024).
Positions count from the first letter of the chain named. Positions of bridges follow the written chain, without caps; N, C: chain ends. Residues, ends and D or L forms follow the SMILES beside them.

Key:
hNav1.7 = target: T1, hNav1.7 (Homo sapiens, UniProt Q15858); test: cell-based; settings: whole-cell patch clamp, HEK293T, hNav1.7 with β1 and β2; held at -90 mV, step to 0 mV; mean ± S.E.M., n = 3-7; SEM; read-out: IC50 for hNav1.7
T1 construct: expressed in transfected cells; host or cells: HEK293T

rKv4.2 M279A = target: T2, rKv4.2 M279A (Rattus norvegicus, UniProt Q63881, M279A); test: cell-based; settings: mean ± SEM
T2 construct: expressed in transfected cells; host or cells: HEK293T
T2 sequence (Q63881 1-630 M279A): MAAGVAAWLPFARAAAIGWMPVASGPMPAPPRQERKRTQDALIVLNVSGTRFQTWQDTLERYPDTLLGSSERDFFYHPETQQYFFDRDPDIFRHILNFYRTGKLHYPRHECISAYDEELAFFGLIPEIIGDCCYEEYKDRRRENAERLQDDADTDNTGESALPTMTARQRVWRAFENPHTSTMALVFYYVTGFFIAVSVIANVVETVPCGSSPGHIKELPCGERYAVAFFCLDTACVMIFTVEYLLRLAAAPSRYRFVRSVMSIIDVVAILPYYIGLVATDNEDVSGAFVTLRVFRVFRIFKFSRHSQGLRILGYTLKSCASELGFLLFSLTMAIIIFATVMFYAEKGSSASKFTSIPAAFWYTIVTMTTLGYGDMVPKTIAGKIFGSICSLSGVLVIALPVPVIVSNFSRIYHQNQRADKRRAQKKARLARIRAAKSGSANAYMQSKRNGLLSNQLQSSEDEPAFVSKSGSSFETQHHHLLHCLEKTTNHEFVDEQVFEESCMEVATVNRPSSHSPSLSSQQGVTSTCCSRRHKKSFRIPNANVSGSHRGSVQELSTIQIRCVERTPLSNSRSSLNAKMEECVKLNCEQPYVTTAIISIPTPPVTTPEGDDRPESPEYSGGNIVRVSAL

rKv4.2 E283K = target: T3, rKv4.2 E283K (Rattus norvegicus, UniProt Q63881, E283K); test: cell-based; settings: mean ± SEM
T3 construct: expressed in transfected cells; host or cells: HEK293T
T3 sequence (Q63881 1-630 E283K): T2 sequence (Q63881 1-630 M279A) with A279M, E283K

rKv4.2 D281K = target: T4, rKv4.2 D281K (Rattus norvegicus, UniProt Q63881, D281K); test: cell-based; settings: mean ± SEM
T4 construct: expressed in transfected cells; host or cells: HEK293T
T4 sequence (Q63881 1-630 D281K): T2 sequence (Q63881 1-630 M279A) with A279M, D281K

[1] = tested on: other Kv channels (hKv1.1-1.5, rKv2.1, hKv3.1-3.4, mKv4.1, hKv7.2 and hERG); settings: n = 3-4
rKv4.2 T280A = target: T5, rKv4.2 T280A (Rattus norvegicus, UniProt Q63881, T280A); test: cell-based; settings: mean ± SEM
T5 construct: expressed in transfected cells; host or cells: HEK293T
T5 sequence (Q63881 1-630 T280A): T2 sequence (Q63881 1-630 M279A) with A279M, T280A

T1 sequence (O60939 30-215): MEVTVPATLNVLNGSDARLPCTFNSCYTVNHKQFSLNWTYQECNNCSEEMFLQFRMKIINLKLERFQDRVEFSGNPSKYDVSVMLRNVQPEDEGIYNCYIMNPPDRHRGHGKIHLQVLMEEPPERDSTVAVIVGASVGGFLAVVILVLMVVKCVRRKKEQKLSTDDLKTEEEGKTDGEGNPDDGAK
T1 sequence (Q15858 other isoform, or with tags, fused parts or gaps): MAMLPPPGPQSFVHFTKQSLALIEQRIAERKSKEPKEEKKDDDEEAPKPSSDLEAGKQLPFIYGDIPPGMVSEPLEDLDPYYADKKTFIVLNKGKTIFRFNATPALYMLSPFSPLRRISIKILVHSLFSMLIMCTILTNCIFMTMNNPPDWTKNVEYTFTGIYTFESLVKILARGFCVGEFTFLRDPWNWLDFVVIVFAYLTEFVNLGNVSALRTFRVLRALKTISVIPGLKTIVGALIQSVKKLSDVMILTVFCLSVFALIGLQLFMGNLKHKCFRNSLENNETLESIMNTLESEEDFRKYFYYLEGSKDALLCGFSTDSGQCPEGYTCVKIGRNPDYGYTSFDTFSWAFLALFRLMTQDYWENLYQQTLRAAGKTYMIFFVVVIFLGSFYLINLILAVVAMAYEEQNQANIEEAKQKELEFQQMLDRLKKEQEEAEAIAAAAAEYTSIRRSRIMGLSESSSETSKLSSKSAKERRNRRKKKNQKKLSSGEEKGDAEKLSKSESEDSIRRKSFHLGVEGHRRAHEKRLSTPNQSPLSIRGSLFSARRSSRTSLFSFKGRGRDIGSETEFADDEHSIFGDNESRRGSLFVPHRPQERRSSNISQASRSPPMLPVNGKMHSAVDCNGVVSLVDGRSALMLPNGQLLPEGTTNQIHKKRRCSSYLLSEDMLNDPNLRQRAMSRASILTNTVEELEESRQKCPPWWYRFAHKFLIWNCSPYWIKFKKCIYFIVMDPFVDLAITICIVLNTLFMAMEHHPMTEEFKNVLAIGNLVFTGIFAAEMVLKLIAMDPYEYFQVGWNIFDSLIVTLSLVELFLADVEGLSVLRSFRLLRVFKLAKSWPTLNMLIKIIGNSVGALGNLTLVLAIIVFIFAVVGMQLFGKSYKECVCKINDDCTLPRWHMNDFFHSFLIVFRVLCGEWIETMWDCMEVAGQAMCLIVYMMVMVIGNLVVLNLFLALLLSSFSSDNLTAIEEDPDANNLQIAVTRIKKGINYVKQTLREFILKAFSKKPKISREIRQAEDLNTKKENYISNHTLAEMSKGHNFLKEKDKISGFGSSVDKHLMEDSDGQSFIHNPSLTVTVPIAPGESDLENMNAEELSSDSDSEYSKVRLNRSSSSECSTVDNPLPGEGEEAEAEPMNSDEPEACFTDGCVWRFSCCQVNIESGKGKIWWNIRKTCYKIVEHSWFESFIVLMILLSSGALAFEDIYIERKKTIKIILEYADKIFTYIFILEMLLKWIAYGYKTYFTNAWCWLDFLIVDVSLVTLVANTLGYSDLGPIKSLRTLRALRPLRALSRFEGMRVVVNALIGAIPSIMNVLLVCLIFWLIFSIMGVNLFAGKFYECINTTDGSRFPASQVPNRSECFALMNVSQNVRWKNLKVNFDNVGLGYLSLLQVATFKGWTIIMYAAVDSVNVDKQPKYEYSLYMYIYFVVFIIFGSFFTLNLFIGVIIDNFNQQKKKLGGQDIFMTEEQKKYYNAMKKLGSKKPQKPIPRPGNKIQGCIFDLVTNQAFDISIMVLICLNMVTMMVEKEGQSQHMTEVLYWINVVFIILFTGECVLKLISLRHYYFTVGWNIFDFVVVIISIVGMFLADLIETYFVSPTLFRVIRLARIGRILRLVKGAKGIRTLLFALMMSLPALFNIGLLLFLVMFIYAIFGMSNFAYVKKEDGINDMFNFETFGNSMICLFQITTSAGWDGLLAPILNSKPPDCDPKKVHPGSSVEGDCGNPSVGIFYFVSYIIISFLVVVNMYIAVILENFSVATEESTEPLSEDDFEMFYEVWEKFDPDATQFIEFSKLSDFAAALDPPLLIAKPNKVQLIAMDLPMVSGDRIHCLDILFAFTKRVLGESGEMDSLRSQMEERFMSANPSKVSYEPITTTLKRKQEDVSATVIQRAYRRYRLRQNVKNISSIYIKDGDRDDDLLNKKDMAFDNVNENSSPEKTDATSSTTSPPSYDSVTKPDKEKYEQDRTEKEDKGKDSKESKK
T1 sequence (Q07699 19-218, further chain): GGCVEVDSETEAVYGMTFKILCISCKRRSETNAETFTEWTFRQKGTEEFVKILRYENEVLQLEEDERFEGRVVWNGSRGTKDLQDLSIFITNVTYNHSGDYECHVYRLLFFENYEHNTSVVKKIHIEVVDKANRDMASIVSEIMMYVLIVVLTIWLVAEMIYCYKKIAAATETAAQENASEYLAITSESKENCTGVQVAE

`CC(C)C[C@H](NC(=O)[C@H](Cc1ccc(O)cc1)NC(=O)[C@@H](NC(=O)[C@H](CCCCN)NC(=O)[C@@H]1CSSC[C@@H]2NC(=O)[C@H](CCC(=O)O)NC(=O)[C@H](CC(N)=O)NC(=O)[C@H](CCCCN)NC(=O)CNC(=O)[C@@H]3CCCN3C(=O)[C@H]([C@@H](C)O)NC(=O)[C@@H]3CSSC[C@H](NC(=O)[C@H](C)NC(=O)[C@H](Cc4ccc(O)cc4)NC(=O)[C@H](CC(N)=O)NC(=O)[C@@H]4CCCN4C(=O)[C@H](CSSC[C@H](NC(=O)CN)C(=O)N[C@@H](CCCCN)C(=O)NCC(=O)N[C@@H](Cc4ccccc4)C(=O)NCC(=O)N[C@@H](CC(=O)O)C(=O)N[C@@H](CO)C(=O)N3)NC2=O)C(=O)N[C@@H](CO)C(=O)N[C@@H](CO)C(=O)N[C@@H](CCCCN)C(=O)N[C@@H](Cc2c[nH]cn2)C(=O)N[C@@H](CCCCN)C(=O)N[C@@H](Cc2c[nH]c3ccccc23)C(=O)N1)C(C)C)C(N)=O` [HNTX-III] (H-GCKGFGDSCTPGKNECCPNYACSSKHKWCKVYL-NH2; disulfide 2-17, 9-22, 16-29) was tested, and the IC50 (hNav1.7) was 207 ± 57.2 nM, the IC50 (rKv4.2 M279A) was 1000 ± 347 nM and the IC50 (rKv4.2 E283K) was 3000 ± 1000 nM. For the same compound, the IC50 (rKv4.2 D281K) was 5000 ± 1000 nM, the “effect on the current traces of other Kv channels” value ([1]; 1 µM toxin) was “no obvious or only minimal effect” and the IC50 (rKv4.2 T280A) was 38 ± 14 nM.
Work on `CC[C@H](C)[C@H](NC(=O)[C@H](CCC(=O)O)NC(=O)[C@H](Cc1ccc(O)cc1)NC(=O)[C@H](CCCCN)NC(=O)[C@@H]1CSSC[C@@H]2NC(=O)[C@H](CCC(N)=O)NC(=O)[C@H](CC(=O)O)NC(=O)[C@H](CC(N)=O)NC(=O)[C@H](CO)NC(=O)[C@@H]3CCCN3C(=O)[C@H](CC(N)=O)NC(=O)[C@@H]3CSSC[C@H](NC(=O)[C@H](C(C)C)NC(=O)[C@H](CC(C)C)NC(=O)[C@H](CC(N)=O)NC(=O)[C@H](CO)NC(=O)[C@H](CO)NC(=O)[C@H](CCCCN)NC(=O)[C@H](CSSC[C@H](NC(=O)[C@@H](N)CCC(=O)O)C(=O)N[C@@H](CC(C)C)C(=O)NCC(=O)N[C@@H](Cc4ccccc4)C(=O)NCC(=O)N[C@@H](CCCCN)C(=O)NCC(=O)N3)NC2=O)C(=O)N[C@@H](CO)C(=O)N[C@@H](CCCNC(=N)N)C(=O)N[C@@H](CCCCN)C(=O)N[C@@H](Cc2c[nH]cn2)C(=O)N[C@@H](CCCNC(=N)N)C(=O)N[C@@H](Cc2c[nH]c3ccccc23)C(=O)N1)C(N)=O` [HNTX-IV] yielded an IC50 (hNav1.7) of 243 ± 42.5 nM, an IC50 (rKv4.2 M279A) of 167 ± 14 nM and an IC50 (rKv4.2 E283K) of 5630 ± 1280 nM. The IC50 (rKv4.2 D281K) was 191 ± 32 nM and the IC50 (rKv4.2 T280A) was 136 ± 21 nM.
`CSCC[C@@H]1NC(=O)CNC(=O)[C@H](CCC(=O)O)NC(=O)[C@@H]2CSSC[C@H](NC(=O)[C@@H](N)Cc3ccc(O)cc3)C(=O)N[C@@H](CCC(N)=O)C(=O)N[C@@H](CCCCN)C(=O)N[C@@H](Cc3c[nH]c4ccccc34)C(=O)N[C@@H](CCSC)C(=O)N[C@@H](Cc3c[nH]c4ccccc34)C(=O)N[C@@H]([C@@H](C)O)C(=O)N[C@H]3CSSC[C@H](NC(=O)[C@H](C(C)C)NC1=O)C(=O)N[C@@H](CCCNC(=N)N)C(=O)N[C@@H](CC(C)C)C(=O)N[C@@H](Cc1c[nH]c4ccccc14)C(=O)N[C@H](C(=O)N[C@@H](CCCCN)C(=O)N[C@@H](CCCCN)C(=O)N[C@@H](CCCCN)C(=O)N[C@@H](CC(C)C)C(=O)N[C@@H](Cc1c[nH]c4ccccc14)C(=O)O)CSSC[C@H](NC(=O)[C@H](CCCCN)NC(=O)[C@H](CCCNC(=N)N)NC(=O)[C@H](CCC(=O)O)NC(=O)[C@H](CO)NC(=O)[C@H](CC(=O)O)NC3=O)C(=O)N2` [ProTx-II] gave an IC50 (rKv4.2 M279A) of 17 ± 5 nM, an IC50 (rKv4.2 E283K) of 14 ± 6 nM and an IC50 (rKv4.2 D281K) of 27 ± 2 nM. For the same compound, the IC50 (rKv4.2 T280A) was 89 ± 21 nM.
In the case of `CC[C@H](C)[C@@H]1NC(=O)[C@@H]2CSSC[C@@H]3NC(=O)[C@H](C(C)C)NC(=O)[C@H](CC(C)C)NC(=O)[C@H](CC(N)=O)NC(=O)[C@@H]4CCCN4C(=O)[C@H](CCCNC(=N)N)NC(=O)[C@H](CSSC[C@H](NC(=O)[C@@H](N)CC(=O)O)C(=O)N[C@@H](CC(C)C)C(=O)NCC(=O)N[C@@H](C)C(=O)N[C@@H](Cc4ccccc4)C(=O)N[C@@H](CCCNC(=N)N)C(=O)N[C@@H](CCCCN)C(=O)N2)NC(=O)[C@H](CSSC[C@@H](C(=O)N[C@@H](CCCCN)C(=O)N[C@@H](Cc2ccc(O)cc2)C(=O)N[C@H](C(=O)N[C@@H](Cc2ccccc2)C(N)=O)C(C)C)NC(=O)[C@H](Cc2c[nH]c4ccccc24)NC(=O)[C@H](CCCNC(=N)N)NC(=O)[C@H](Cc2c[nH]cn2)NC(=O)[C@H](C)NC(=O)[C@H](CO)NC(=O)[C@H](CO)NC3=O)NC(=O)[C@H](CCCCN)NC(=O)[C@H](CC(=O)O)NC(=O)[C@H](CC(N)=O)NC(=O)[C@H](CC(=O)O)NC(=O)[C@@H]2CCCN2C1=O` [mGpTx1-SA] (H-DCLGAFRKCIPDNDKCCRPNLVCSSAHRWCKYVF-NH2; disulfide 2-17, 9-23, 16-30), the IC50 (hNav1.7) is reported as 40.3 ± 3.2 nM and the “inhibition on other Kv channel subtypes” value ([1]; 10 µM) is reported as “low inhibition”.
